This passage reports IC50 results from US9115133B2, “Substituted fused tricyclic compounds, compositions and medicinal applications thereof” (Advinus Therapeutics Limited, priority 2011, dated 2015).

Holding throughout (type): biochemical
Details in all cases: 200 μg/ml Poly Glu-Tyr (4:1), ATP 1 uM, 90 min room temperature, luminescence

For experiment [1], the target named is T1, Recombinant JAK1 (Amino acids 850-1154) (Homo sapiens, UniProt P23458).
T1 construct: Recombinant JAK1 (Amino acids 850-1154; NM_002227.2); made in house; host or cells: baculovirus expression system (Bac-to-Bac)
The experiment is described as follows: Kinase-Glo Luminescent Kinase Assay, recombinant JAK1. The text has this:
(§1) Recombinant JAK1 (Amino acids 850-1154; NM_002227.2), JAK2 (Amino acids 808-1132; NM_004972.3) and JAK3 (Amino acids 781-1124; NM_000215.3) used in the studies were expressed using Invitrogen's Bac-to-Bac baculovirus expression system according to manufacturer's instructions. Adenosine 5′-triphosphate was obtained from Sigma Aldrich chemicals (Cat # A7699). Poly Glu-Tyr (4:1) sodium salt was obtained from Sigma Aldrich (Cat # P0275), Kinase Glo® Luminescent Kinase assay kit was obtained from Promega (Cat # V6713) Kinase activity was assessed by Promega Kinase-Glo® Luminescent Kinase Assay kit using 200 μg/ml Poly Glu-Tyr (4:1) as substrate and ATP at 1 uM concentration. The reactions were carried out in 384 well plates in total reaction volume of 20 uL. Reaction mixtures contained 50 mM HEPES pH 7.4, 5 mM MgCl2, 1 mM DTT, 0.01% BSA, 0.01% Tween 20. Kinase was pre-incubated with compounds or 1% DMSO for 5 min before addition of substrate and ATP to check for inhibition. Kinase reactions were carried out at room temperature for 90 min. The reactions were stopped by adding 5 μl of Kinase Glo® reagent & 10 μl of reaction mixture followed by measuring luminescence. The luminescent signal is correlated with the amount of ATP present at the end of kinase reaction and is inversely correlated with the amount of kinase activity. For each data point, % inhibition is calculated based on uninhibited reaction (without compound) which is considered as 100% activity over no enzyme or substrate controls. Dose response data is then fit using a four parameter logistic equation using Graph-pad Prism 5 software to determine inhibition constant 50 (IC50).
(Kinase-Glo measures the ATP left after a reaction by luminescence.)

The target in experiment [2] is T2, Recombinant JAK2 (Amino acids 808-1132) (Homo sapiens, UniProt O60674).
T2 construct: JAK2 (Amino acids 808-1132; NM_004972.3); made in house; host or cells: baculovirus expression system (Bac-to-Bac)
Kind of experiment: Kinase-Glo Luminescent Kinase Assay, recombinant JAK2.
Source text: as §1

The target in experiment [3] is T3, Recombinant JAK3 (Amino acids 781-1124) (Homo sapiens, UniProt P52333).
T3 construct: JAK3 (Amino acids 781-1124; NM_000215.3); made in house; host or cells: baculovirus expression system (Bac-to-Bac)
The experiment is described as follows: Kinase-Glo Luminescent Kinase Assay, recombinant JAK3.
Source text: as §1

T1 sequence (P23458 850-1154): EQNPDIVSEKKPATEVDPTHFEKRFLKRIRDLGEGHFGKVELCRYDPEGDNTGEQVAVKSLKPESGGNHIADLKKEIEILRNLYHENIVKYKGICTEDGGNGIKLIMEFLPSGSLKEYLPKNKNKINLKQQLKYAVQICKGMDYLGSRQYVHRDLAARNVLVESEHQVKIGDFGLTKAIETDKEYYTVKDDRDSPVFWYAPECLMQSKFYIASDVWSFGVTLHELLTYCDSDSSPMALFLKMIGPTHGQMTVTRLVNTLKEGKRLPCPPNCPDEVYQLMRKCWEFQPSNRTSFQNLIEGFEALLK
T2 sequence (O60674 808-1132): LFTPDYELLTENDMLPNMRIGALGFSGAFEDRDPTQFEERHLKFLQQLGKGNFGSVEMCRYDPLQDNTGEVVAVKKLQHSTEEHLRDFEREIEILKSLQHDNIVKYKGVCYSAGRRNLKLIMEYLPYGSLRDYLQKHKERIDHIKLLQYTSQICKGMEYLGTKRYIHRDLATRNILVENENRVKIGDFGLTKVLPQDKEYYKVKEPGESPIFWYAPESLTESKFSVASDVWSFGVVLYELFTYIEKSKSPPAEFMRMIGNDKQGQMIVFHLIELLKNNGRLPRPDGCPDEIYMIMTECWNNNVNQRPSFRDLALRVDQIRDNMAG
T3 sequence (P52333 781-1124): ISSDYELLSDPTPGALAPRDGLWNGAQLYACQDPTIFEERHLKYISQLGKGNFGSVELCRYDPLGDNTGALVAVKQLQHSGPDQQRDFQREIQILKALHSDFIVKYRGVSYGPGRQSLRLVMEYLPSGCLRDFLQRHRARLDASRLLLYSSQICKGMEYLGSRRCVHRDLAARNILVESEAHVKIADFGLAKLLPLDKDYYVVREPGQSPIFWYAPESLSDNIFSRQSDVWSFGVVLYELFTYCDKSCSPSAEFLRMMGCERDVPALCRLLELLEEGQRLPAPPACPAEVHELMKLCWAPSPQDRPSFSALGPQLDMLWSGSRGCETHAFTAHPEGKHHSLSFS

The IC50 is the concentration that inhibits the measured activity by half. Consider `N#CCC(=O)N1CCC[C@@H](c2ncnc3cnc4[nH]ccc4c23)C1` [Ex. 23A, (R)3-Oxo-3-[3-(3H-3,4,6,8-tetraazacyclopenta[a]naphthalen-9-yl)-piperidin-1-yl]-propionitrile], for which the concentration for half-maximal inhibition (IC50) in experiment [1], in experiment [2] and in experiment [3] was > 20 nM each time.
For the molecule `O=S(=O)(C1CC1)N1CCCC(c2ncnc3cnc4[nH]ccc4c23)C1` (stereo not drawn) [Ex. 31, 9-(1-Cyclopropanesulfonyl-piperidin-3-yl)-3H-3,4,6,8-tetraaza-cyclopenta[a]naphthalene], the IC50 in experiment [1], in experiment [2] and in experiment [3] was > 20 nM throughout.
As for `CC(C)CC(=O)N1CCCC(c2ncnc3cnc4[nH]ccc4c23)C1` (stereo not drawn) [Ex. 21, 3-Methyl-1-[3-(3H-3,4,6,8-tetraazacyclopenta[a]naphthalen-9-yl)-piperidin-1-yl]-butan-1-one], the IC50 in experiment [1], in experiment [2] and in experiment [3] was > 20 nM each time.
Turning to `CCNC(=O)C1CCCN(c2ccnc3cnc4[nH]ccc4c23)C1` (stereo not drawn) [Ex. 72, N-ethyl-1-(3H-pyrrolo[3,2-f][1,7]naphthyridin-9-yl)piperidine-3-carboxamide], the IC50 in experiment [1], in experiment [2] and in experiment [3] was > 20 nM in each case.
Take `CS(=O)(=O)CC(=O)N1CCCC(c2ccnc3cnc4[nH]ccc4c23)C1` (stereo not drawn) [Ex. 12, 2-methylsulfonyl-1-[3-(3H-pyrrolo[3,2-f][1,7]naphthyridin-9-yl)-1-piperidyl]ethanone]: the 50% inhibitory concentration (IC50) in experiment [1] is 1 to 20 nM; in experiment [2], 1 to 20 nM; in experiment [3] it was > 20 nM.
For `CCNC(=O)N1CCCC(c2ccnc3cnc4[nH]ccc4c23)C1` (stereo not drawn) [Ex. 48, N-ethyl-3-(3H-pyrrolo[3,2-f][1,7]naphthyridin-9-yl)piperidine-1-carboxamide], the half-maximal inhibitory concentration (IC50) in experiment [1], in experiment [2] and in experiment [3] was > 20 nM in each case.
For `CC(C)CS(=O)(=O)N1CCC(c2ccnc3cnc4[nH]ccc4c23)C1` (stereo not drawn) [Ex. 18, 9-(1-isobutylsulfonylpyrrolidin-3-yl)-3H-pyrrolo[3,2-f][1,7]naphthyridine], the figures for the half-inhibitory concentration (IC50) in experiment [1], in experiment [2] and in experiment [3] were 1 to 20 nM, 1 to 20 nM and > 20 nM, respectively.
For `O=C(C1CCOC1)N1CCCC(c2ncnc3cnc4[nH]ccc4c23)C1` (stereo not drawn) [Ex. 26, [3-(3H-3,4,6,8-Tetraaza-cyclopenta[a]naphthalen-9-yl)-piperidin-1-yl]-(tetrahydro-furan-3-yl)-mathanone], the 50% inhibitory concentration (IC50) in experiment [1] is 1 to 20 nM; in experiment [2], > 20 nM; in experiment [3], > 20 nM.
Turning to `CCS(=O)(=O)N1CCC(c2ccnc3cnc4[nH]ccc4c23)C1` (stereo not drawn) [Ex. 19, 9-(1-ethylsulfonylpyrrolidin-3-yl)-3H-pyrrolo[3,2-f][1,7]naphthyridine], the half-maximal inhibitory concentration (IC50) in experiment [1] was 1 to 20 nM; in experiment [2], 1 to 20 nM; in experiment [3] it was > 20 nM.
As to `O=C(CC(F)(F)F)NC1CCCN(c2ccnc3cnc4[nH]ccc4c23)C1` (stereo not drawn) [Ex. 87, 3,3,3-trifluoro-N-[1-(3H-pyrrolo[3,2-f][1,7]naphthyridin-9-yl)-3-piperidyl] propanamide], the figures for the half-maximal inhibitory concentration (IC50) in experiment [1], in experiment [2] and in experiment [3] were > 20 nM, 1 to 20 nM and > 20 nM, respectively.
Consider `CN(C(=O)CC(F)(F)F)C1CCCN(c2ccnc3cnc4[nH]ccc4c23)C1` (stereo not drawn) [Ex. 65, 3,3,3-trifluoro-N-methyl-N-[1-(3H-pyrrolo[3,2-f][1,7]naphthyridin-9-yl)-3-piperidyl]propanamide], for which the IC50 in experiment [1], in experiment [2] and in experiment [3] was > 20 nM each time.
As for `N#CCC(=O)N1CCCC(c2ccnc3cnc4[nH]ccc4c23)C1` (stereo not drawn) [Ex. 1, 3-oxo-3-[3-(3H-pyrrolo[3,2-f][1,7]naphthyridin-9-yl)-1-piperidyl]propanenitrile], the IC50 in experiment [1], in experiment [2] and in experiment [3] was 1 to 20 nM throughout.
Consider `CC(C)OC(=O)N1CCCC(c2ccnc3cnc4[nH]ccc4c23)C1` (stereo not drawn) [Ex. 52, Isopropyl 3-(3H-pyrrolo[3,2-f][1,7]naphthyridin-9-yl)piperidine-1-carboxylate], for which the IC50 in experiment [2] and in experiment [3] was 1 to 20 nM each time.
In the case of `O=S(=O)(NC1CCN(c2ccnc3cnc4[nH]ccc4c23)C1)C1CC1` (stereo not drawn) [Ex. 91, N-[1-(3H-pyrrolo[3,2-f][1,7]naphthyridin-9-yl)pyrrolidin-3-yl]cyclopropanesulfon-amide], the IC50 in experiment [2] is 1 to 20 nM; in experiment [3], > 20 nM.
In the same order, the values of `O=S(=O)(CC(F)(F)F)NC1CCN(c2ccnc3cnc4[nH]ccc4c23)C1` (stereo not drawn) [Ex. 90, 2,2,2-trifluoro-N-[1-(3H-pyrrolo[3,2-f][1,7]naphthyridin-9-yl)pyrrolidin-3-yl] ethanesulfonamide] are 1 to 20 nM and 1 to 20 nM.
Regarding `N#CCS(=O)(=O)N1CC[C@H](c2ccnc3cnc4[nH]ccc4c23)C1` [Ex. 16A, (R)2-[3-(3H-pyrrolo[3,2-f][1,7]naphthyridin-9-yl)pyrrolidin-1-yl]sulfonylacetonitrile], the concentration for half-maximal inhibition (IC50) in experiment [2] was 1 to 20 nM; in experiment [3] it was > 20 nM.
The matching figures for `O=C(OCC(F)(F)F)N1CCCC(c2ccnc3cnc4[nH]ccc4c23)C1` (stereo not drawn) [Ex. 51, 2,2,2-trifluoroethyl 3-(3H-pyrrolo[3,2-f][1,7]naphthyridin-9-yl)piperidine-1-carboxylate]: 1 to 20 nM and 1 to 20 nM.
In the same order, the values of `CN(CC1CC1)C1CCN(c2ccnc3cnc4[nH]ccc4c23)C1` (stereo not drawn) [Ex. 62, N-(cyclopropylmethyl)-N-methyl-1-(3H-pyrrolo[3,2-f][1,7]naphthyridin-9-yl)pyrrolidin-3-amine] are > 20 nM and > 20 nM.
The matching figures for `O=C(CC(F)(F)F)N1CC[C@@H](c2ccnc3cnc4[nH]ccc4c23)C1` [Ex. 15B, (S)3,3,3-trifluoro-1-[3-(3H-pyrrolo[3,2-f][1,7]naphthyridin-9-yl)pyrrolidin-1-yl]propan-1-one]: 1 to 20 nM and > 20 nM.
In the case of `N#CCS(=O)(=O)N1CC[C@@H](c2ccnc3cnc4[nH]ccc4c23)C1` [Ex. 16B, (S)2-[3-(3H-pyrrolo[3,2-f][1,7]naphthyridin-9-yl)pyrrolidin-1-yl]sulfonylacetonitrile], the IC50 in experiment [2] and in experiment [3] was > 20 nM each time.
Regarding `c1cc(N2CCC(OCC3CC3)C2)c2c(cnc3[nH]ccc32)n1` (stereo not drawn) [Ex. 59, 9-[3-(cyclopropylmethoxy)pyrrolidin-1-yl]-3H-pyrrolo[3,2-f][1,7]naphthyridine], the values for the IC50 in experiment [2] and in experiment [3] were > 20 nM and 1 to 20 nM, respectively.
The matching figures for `CC(C)(C)OC(=O)NC1CCN(c2ccnc3cnc4[nH]ccc4c23)C1` (stereo not drawn) [Comp. 124, tert-Butyl N-[1-(3H-pyrrolo[3,2-f][1,7]naphthyridin-9-yl)pyrrolidin-3-yl]carbamate]: > 20 nM and > 20 nM.
For the molecule `O=C(NC1CC1)C1CCCN(c2ccnc3cnc4[nH]ccc4c23)C1` (stereo not drawn) [Ex. 61, N-cyclopropyl-1-(3H-pyrrolo[3,2-f][1,7]naphthyridin-9-yl)piperidine-3-carboxamide], the IC50 in experiment [2] and in experiment [3] was > 20 nM throughout.
In the case of `O=S(=O)(CC(F)(F)F)NC1CCCN(c2ccnc3cnc4[nH]ccc4c23)C1` (stereo not drawn) [Ex. 86, 2,2,2-trifluoro-N-[1-(3H-pyrrolo[3,2-f][1,7]naphthyridin-9-yl)-3-piperidyl] ethanesulfonamide], the IC50 in experiment [2] and in experiment [3] was 1 to 20 nM each time.
